Laboratory results reported in patent US5304560A, “Quinazoline derivatives and their preparation” (Fujisawa Pharmaceutical Co., Ltd., priority 1990, dated 1994).

Legend:
[1] = test system: reserpine-induced DOPA accumulation; test: Inhibition of reserpine-induced DOPA accumulation; assay type: in vivo, Male SD rats; conditions: dose 3.2 mg/kg, oral, 2 hours before sacrifice; reserpine 1 mg/kg s.c. 17-19 hours before; striatum DOPA
Description: Test 2 [Inhibition of reserpine-induced DOPA accumulation]
Male SD rats weighing 300-400 g were used in this test. Rats were pretreated with reserpine (1 mg/kg, S.C.) 17-19 hours before sacrifice and then fasted. Test Compound was given orally to the rats 2 hours before sacrifice. [m-Hydroxybenzylhydrazine (100 mg/kg, i.p.) was given 30 minutes before sacrifice.] Each rat was exposed to microwaves using a head-focus microwave applicator for 1.5 seconds. The whole brain was removed and further separated into the striatum.
DOPA was determined as follows; the striatum was homogenized in 9 volumes of 0.1N perchloric acid solution (0.4% EDTA·2Na). The homogenate was centrifuged at 10,000 rpm for 1 minutes. The supernatant was applied to high performance liquid chromatography.

DA2 receptor = target: T1, DA2 receptor (Rattus norvegicus, UniProt P61169); test: Dopamine receptor (DA2 receptor) binding assay; conditions: [3H]spiperone 0.2 nM; rat striatum 160 μg/ml; 37° C., 10 minutes, pH 7.4
T1 construct: The final tissue concentration of rat striatum was 160 μg/ml; from tissue; host or cells: rat striatum (printed 'stratum'), washed homogenate
Description: Test 1 [Dopamine receptor (DA2 receptor) binding assay]
The affinity for DA2 receptor of a Test Compound was determined following in vitro receptor binding assays.
Male rats weighing 150-300 g were decapitated and the stratum were dissected from their brains. The tissue was homogenized in 30 volumes of buffer which consisted of 50 mM Tris-HCl (pH 7.4 at 25° C.), 120 mM sodium chloride, 5 mM potassium chloride, 1 mM calcium chloride, 1 mM magnesium chloride, 10 μM pargirine, and 0.1% ascorbic acid. The homogenate was centrifuged at 50,000 g for 15 minutes. The pellet was resuspended in 30 volumes of the buffer. The tissue suspension was centrifuged and suspended again in the same way.
Incubation tubes received 100 μl of [phenyl-4-^3 H]spiperone, 100 μl of the Test Compound and 0.8 ml of tissue suspension during binding assays. The concentration of [phenyl-4-^3 H]spiperone was 0.2 nM. The final tissue concentration of rat striatum was 160 μg/ml. […] The filters were counted by liquid scintillation counter.
Specific binding of the [^3 H]spiperone was determined in the presence of 1 μM butaclamol. The IC50 value of the Test Compound was calculated from the data of [^3 H]spiperone binding in the presence of 10^-9 M, 10^-8 M, 10^-7 M and 10^-6 M Test Compound.

[2] = test system: spontaneous hypertensive rats; test: Hypotensive effect on spontaneous hypertensive rats; assay type: in vivo, rat; conditions: dose 1 mg/kg, oral, in 0.5% methylcellulose; 15 to 25-week-old male spontaneous hypertensive rats
Description: Test 3 [Hypotensive effect on spontaneous hypertensive rats]
15 to 25-Week-old male spontaneous hypertensive rats with mean arterial blood pressure of about 160-200 mmHg, weighing 300-350 g, were used. The animals were cannulated in the left femoral artery and the mean blood pressure and heart rate were measured with a pressure-transducer. The animals were deprived of food for about 18 hours before oral dosing. The Test Compound was suspended in 0.5% methylcellulose, and given orally.

T1 sequence (P61169 whole entry): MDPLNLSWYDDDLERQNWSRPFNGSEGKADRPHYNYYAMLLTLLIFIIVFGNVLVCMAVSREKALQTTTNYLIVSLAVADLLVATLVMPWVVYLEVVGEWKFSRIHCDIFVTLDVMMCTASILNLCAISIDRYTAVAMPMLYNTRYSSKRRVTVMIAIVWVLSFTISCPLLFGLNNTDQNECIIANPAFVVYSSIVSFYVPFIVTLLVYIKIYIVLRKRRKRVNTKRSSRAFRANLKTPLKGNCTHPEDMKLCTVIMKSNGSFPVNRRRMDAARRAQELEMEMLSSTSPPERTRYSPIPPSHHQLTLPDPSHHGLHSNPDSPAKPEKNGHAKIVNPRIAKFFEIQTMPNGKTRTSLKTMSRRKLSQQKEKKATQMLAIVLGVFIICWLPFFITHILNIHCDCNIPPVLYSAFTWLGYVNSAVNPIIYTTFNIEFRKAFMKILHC

`Br.O=c1[nH]c(=O)n(CCCCN2CC=C(c3ccccc3)CC2)c2cc(O)ccc12` [Compound A, 1-[4-(4-phenyl-1,2,3,6-tetrahydropyridin-1-yl)butyl]-7-hydroxy-2,4(1H,3H)-quinazolinedione hydrobromide] was tested, and the “Inhibition (%)” value [1] was 10%, the IC50 (DA2 receptor) was 7.4 nM and the “Maximum decrease of blood pressure (%)” value [2] was 19%.
